Values joined by “and” are separate entries in the source; they are usually repeats but may differ in a detail not shown here. Identical values can stand only once. Inconclusive results and toxic doses are left out. Rule for the calls: active = survival T/C of 150% or more; inactive = T/C below 125% in these data.
Test system: BDF1 mice, P388 leukemia ip, median survival T/C
Assay: NCI In Vivo Anticancer Drug Screen. Data for tumor model P388 Leukemia (intraperitoneal) in B6D2F1 (BDF1) mice
Conditions: endpoint: median survival time, higher = longer survival
Procedure, shortened: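 Each value expresses how treatment altered survival: treated-mouse outcome over vehicle-mouse outcome, both groups bearing the transplanted tumour.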

[1] = dose: 100.0 mg/kg/injection, schedule: Q01DX009 (ip), vehicle: saline
[2] = dose: 100.0 mg/kg/injection, schedule: Q04DX003 (ip), vehicle: saline with Tween-80
[3] = dose: 200.0 mg/kg/injection, schedule: Q04DX003 (ip), vehicle: saline with Tween-80
[4] = dose: 12.5 mg/kg/injection, schedule: Q04DX003 (ip), vehicle: saline with Tween-80
[5] = dose: 50.0 mg/kg/injection, schedule: Q01DX009 (ip), vehicle: saline with Tween-80
[6] = dose: 100.0 mg/kg/injection, schedule: Q01DX009 (ip), vehicle: saline with Tween-80
[7] = dose: 200.0 mg/kg/injection, schedule: Q01DX009 (ip), vehicle: saline with Tween-80
[8] = dose: 50.0 mg/kg/injection, schedule: Q04DX003 (ip), vehicle: saline with Tween-80
[9] = dose: 25.0 mg/kg/injection, schedule: Q01DX009 (ip), vehicle: saline
[10] = dose: 50.0 mg/kg/injection, schedule: Q01DX009 (ip), vehicle: saline
[11] = dose: 200.0 mg/kg/injection, schedule: Q01DX009 (ip), vehicle: saline
[12] = dose: 200.0 mg/kg/injection, schedule: Q01DX009 (ip), vehicle: Klucel (hydroxypropylcellulose) (HPC)

Measured: T/C

C[C@]12CCC(=O)C[C@@H]1CC[C@@H]1[C@@H]2CC[C@]2(C)[C@@H](OC(=O)N(CCCl)N=O)CC[C@@H]12
inactive: [1] 100 % of control

CC(C(O)c1cccs1)C(O)(C(F)(F)F)C(F)(F)F (stereo not drawn)
inactive: [2] 90 % of control | [3] 109 % of control

CCCCNP(=O)(N1CC1)N1CC1
inactive: dose: 8.0 mg/kg/injection, schedule: Q04DX003 (ip), vehicle: saline with Tween-80 116 % of control | dose: 12.0 mg/kg/injection, schedule: Q04DX003 (ip), vehicle: saline with Tween-80 100 % of control
active: dose: 8.25 mg/kg/injection, schedule: Q04DX003 (ip), vehicle: saline with Tween-80 154 % of control | [4] 190 % of control | dose: 18.75 mg/kg/injection, schedule: Q04DX003 (ip), vehicle: saline with Tween-80 218 % of control

COc1cccc2c1C(=O)c1c(O)c3c(c(O)c1C2=O)C[C@@](O)(C(C)=O)C[C@@H]3OC1CC(N(C)C)C(O)C(C)O1 (stereo partly drawn)
active: dose: 3.46 mg/kg/injection, schedule: Q04DX003 (ip), vehicle: water 161 % of control | dose: 5.76 mg/kg/injection, schedule: Q04DX003 (ip), vehicle: water 167 % of control | dose: 9.6 mg/kg/injection, schedule: Q04DX003 (ip), vehicle: water 184 % of control
inactive: dose: 16.0 mg/kg/injection, schedule: Q04DX003 (ip), vehicle: water 110 % of control

CCN(CC)CCCC(C)Nc1cc(C)nc2cc(N(C)C)ccc12 (stereo not drawn)
inactive: dose: 6.25 mg/kg/injection, schedule: Q01DX009 (ip), vehicle: Klucel (hydroxypropylcellulose) (HPC) 117 % of control | dose: 12.5 mg/kg/injection, schedule: Q01DX009 (ip), vehicle: Klucel (hydroxypropylcellulose) (HPC) 108 % of control

O=C1C=CC(=Nc2ccc3c(c2)C(Br)c2ccccc2-3)O1 (stereo not drawn)
inactive: dose: 2.25 mg/kg/injection, schedule: Q01DX009 (ip), vehicle: saline 100 % of control | dose: 4.5 mg/kg/injection, schedule: Q01DX009 (ip), vehicle: saline 100 % of control | dose: 9.0 mg/kg/injection, schedule: Q01DX009 (ip), vehicle: saline 100 % of control | dose: 13.0 mg/kg/injection, schedule: Q01DX009 (ip), vehicle: saline 105 % of control | dose: 20.0 mg/kg/injection, schedule: Q01DX009 (ip), vehicle: saline 100 % of control | dose: 30.0 mg/kg/injection, schedule: Q01DX009 (ip), vehicle: saline 120 % of control | dose: 95.0 mg/kg/injection, schedule: Q04DX003 (ip), vehicle: saline 109 % of control | dose: 145.0 mg/kg/injection, schedule: Q04DX003 (ip), vehicle: saline 118 % of control

CN(C)NC1OC(C(O)S(=O)(=O)O)C(OCc2ccccc2)C(OCc2ccccc2)C1O (stereo not drawn)
inactive: [5] 109 % of control | [6] 98 % of control | [7] 94 % of control

O=C(Nc1ccc(NC(=O)c2ccc(C3=NCCCN3)cc2)cc1)c1ccc(C2=NCCCN2)cc1
active: dose: 33.0 mg/kg/injection, schedule: Q04DX003 (ip), vehicle: saline with Tween-80 159 % of control | [8] 153 % of control and 181 % of control | dose: 75.0 mg/kg/injection, schedule: Q04DX003 (ip), vehicle: saline with Tween-80 168 % of control and 207 % of control

CC12CCC(Cl)CC1=CCC1C2CCC2(C)C1CCCN2CCCl (stereo not drawn)
inactive: dose: 12.5 mg/kg/injection, schedule: Q01DX001 (ip), vehicle: saline with Tween-80 105 % of control | dose: 12.5 mg/kg/injection, schedule: Q01DX001 (ip), vehicle: saline 102 % of control | dose: 25.0 mg/kg/injection, schedule: Q01DX001 (ip), vehicle: saline with Tween-80 113 % of control | dose: 25.0 mg/kg/injection, schedule: Q01DX001 (ip), vehicle: saline 117 % of control

CCOC(=O)c1c(N)ssc1=S
inactive: dose: 6.25 mg/kg/injection, schedule: Q01DX009 (ip), vehicle: saline 101 % of control | dose: 12.5 mg/kg/injection, schedule: Q01DX009 (ip), vehicle: saline 113 % of control | [9] 100 % of control | [10] 111 % of control | [1] 113 % of control | dose: 100.0 mg/kg/injection, schedule: Q04DX003 (ip), vehicle: saline 112 % of control | [11] 93 % of control and 104 % of control | dose: 200.0 mg/kg/injection, schedule: Q04DX003 (ip), vehicle: saline 86 % of control | dose: 300.0 mg/kg/injection, schedule: Q01DX009 (ip), vehicle: saline 91 % of control

O=C(CNC(=O)c1cccc(C(=O)NCC(=O)Nc2ccc(C3=NCCN3)cc2)c1)Nc1ccc(C2=NCCN2)cc1
active: [9] 169 % of control | [10] 250 % of control
inactive: dose: 8.2 mg/kg/injection, schedule: Q01DX009 (ip), vehicle: saline 117 % of control

CSc1cc(-c2ccc(Cl)cc2)s[s+]1
inactive: dose: 3.12 mg/kg/injection, schedule: Q04DX003 (ip), vehicle: saline with Tween-80 104 % of control | dose: 6.25 mg/kg/injection, schedule: Q01DX009 (ip), vehicle: saline with Tween-80 110 % of control | dose: 6.25 mg/kg/injection, schedule: Q04DX003 (ip), vehicle: saline with Tween-80 111 % of control | dose: 12.5 mg/kg/injection, schedule: Q01DX009 (ip), vehicle: saline with Tween-80 89 % of control | [4] 109 % of control | dose: 25.0 mg/kg/injection, schedule: Q01DX009 (ip), vehicle: saline with Tween-80 100 % of control | dose: 25.0 mg/kg/injection, schedule: Q04DX003 (ip), vehicle: saline with Tween-80 108 % of control | [5] 91 % of control | [8] 94 % of control

CCN(/C=C/C=C1C(=O)N(C)C(=O)N(C)C1=O)CC
inactive: [10] 100 % of control | [1] 102 % of control | [11] 100 % of control

O=C1CSC(c2ccccc2)N1c1nccs1 (stereo not drawn)
inactive: [5] 98 % of control | [6] 91 % of control | [7] 104 % of control

CCOC1CC2c3ccccc3C1c1cccc[n+]12 (stereo not drawn)
inactive: dose: 9.37 mg/kg/injection, schedule: Q01DX009 (ip), vehicle: saline 108 % of control | dose: 18.75 mg/kg/injection, schedule: Q01DX009 (ip), vehicle: saline 108 % of control | dose: 37.5 mg/kg/injection, schedule: Q01DX009 (ip), vehicle: saline 91 % of control

CCOC(=O)c1cccc(OP(=O)(N(C)C)N(C)C)c1
inactive: [5] 108 % of control | [6] 116 % of control

O=C(O)CCC(=O)Nc1cccc(Oc2ccc([N+](=O)[O-])cc2[N+](=O)[O-])c1
inactive: dose: 100.0 mg/kg/injection, schedule: Q04DX003 (ip), vehicle: other 95 % of control | [12] 113 % of control | dose: 200.0 mg/kg/injection, schedule: Q04DX003 (ip), vehicle: other 100 % of control | dose: 400.0 mg/kg/injection, schedule: Q01DX009 (ip), vehicle: Klucel (hydroxypropylcellulose) (HPC) 109 % of control | dose: 400.0 mg/kg/injection, schedule: Q04DX003 (ip), vehicle: other 100 % of control

COc1cc(OC)c(OC)cc1/C=N/Nc1ccc(C(=O)O)cc1
inactive: [2] 105 % of control | [3] 100 % of control | dose: 400.0 mg/kg/injection, schedule: Q04DX003 (ip), vehicle: saline with Tween-80 110 % of control

Cc1nc2nc(N)nc(N)c2nc1C
inactive: [5] 100 % of control | [6] 104 % of control | [2] 95 % of control | [7] 100 % of control | [3] 95 % of control

CN(C)c1ccc(S(=O)(=O)c2ccc3nc(N)nc(N)c3c2)cc1
inactive: [5] 97 % of control | [6] 91 % of control | [7] 88 % of control

CCOC(=O)c1c[nH]c(=S)n1C
inactive: dose: 100.0 mg/kg/injection, schedule: Q01DX009 (ip), vehicle: Klucel (hydroxypropylcellulose) (HPC) 95 % of control | dose: 100.0 mg/kg/injection, schedule: Q04DX003 (ip), vehicle: Klucel (hydroxypropylcellulose) (HPC) 95 % of control | [12] 104 % of control | dose: 200.0 mg/kg/injection, schedule: Q04DX003 (ip), vehicle: Klucel (hydroxypropylcellulose) (HPC) 91 % of control

NC(=O)c1ncccc1C(=O)O
inactive: dose: 100.0 mg/kg/injection, schedule: Q01DX001 (ip), vehicle: saline with Tween-80 103 % of control | dose: 200.0 mg/kg/injection, schedule: Q01DX001 (ip), vehicle: saline with Tween-80 100 % of control | dose: 400.0 mg/kg/injection, schedule: Q01DX001 (ip), vehicle: saline with Tween-80 96 % of control

C1CC[N-]CC1.C1CC[N-]CC1.C1CC[N-]CC1.C1CC[N-]CC1.[Cl][Rh][Cl]
inactive: dose: 12.5 mg/kg/injection, schedule: Q04DX003 (ip), vehicle: saline 118 % of control
